Experimental data from patent publication US9453242B2, “Method and culture medium for preparing mammalian ovum or embryo in which zona pellucida has been thinned or eliminated, and method for fertilization using mammalian ovum prepared by same method” (NATIONAL UNIVERISTY CORPORATION KUMAMOTO UNIVERSITY, priority 2010, dated 2016).

Assays:
[1] = system: zona pellucida of a mouse unfertilized ovum; test: Swelling of zona pellucida (area in zona pellucida) of unfertilized ovum; type: cell-based; conditions: reducing agents other than glutathione; FIG. 10, FIG. 11 (DTT 0.5, ascorbic acid 5, epicatechin 1 mM)
Experimental: Further, the influence of glutathione on swelling of zona pellucida was confirmed. […] Preparation of ovum” were treated with HTF culture media containing glutathione at various concentration at 37° C. for 6 hours, then, the area in zona pellucida was photographed under a microscope and measured by an image analysis software. The conditions of zona pellucida at glutathione concentrations of 0 mM, 1 mM, 2 mM and 10 mM were observed by an invert microscope.
The influence of other reducing agents (DTT, ascorbic acid (VC) and epicatechin (EC)) exerted on thinning and swelling of zona pellucida was confirmed in the same manner as in Example 2. The extent of swelling of the zona pellucida of an unfertilized ovum by the concentration of each reducing agent was photographed under a microscope, and determined according to the following formula. % Relative area in ZP=(area of zona pellucida in each experiment/area of zona pellucida at 0 mM)×100

[2] = system: frozen sperms of C57BL/6J mice; test: In vitro fertilization after sperm pre-incubation with MBCD and/or glutathione; type: cell-based, mouse
Experimental: A sperm suspension is pre-incubated in 90 μl of a TYH culture medium at 37° C. for 30 minutes, and under a stereomicroscope, sperms showing motility are collected, avoiding nonmotile sperms, and used for fertilization. The pre-incubated sperm suspension (10 μl) is added to 90 μl of an HTF culture medium (±glutathione) into which cumulus-oocyte complexes (COCs) have been previously introduced (insemination), and these are co-incubated in an incubator for 5 to 6 hours (37° C., 5% CO2), thereby performing fertilization. Thereafter, the ovum is washed with drops of new HTF, and the ovum is observed. Those judged to parthenogenetic (only one pronucleus is recognized in ooplasm) are excluded, and on the following day (24 hours after insemination), only 2-cell stage embryos are selected, and fertilization rate is determined according to the following formula. In vitro fertilization rate (%)=(number of 2-cell stage embryo)/(number of 2-cell stage embryo+number of unfertilized ovum)×100
The TYH culture medium used for pre-incubation of sperms was prepared according to the above-described composition excepting that polyvinyl alcohol (1.0 mg/ml, available from SIGMA) was used instead of bovine serum albumin, and methyl-β-cyclodextrin (0.75 mM, available from SIGMA) was added. Further, the concentration of glutathione in the TYH culture medium was 1 mM, preparation was carried out in the same manner as in Example 1, and glutathione was added to the TYH culture medium directly before use. The influence on fertilization rate was compared among those containing methyl-β-cyclodextrin, those containing glutathione and those containing both compounds.
Fertilization was conducted with 90 μl of an HTF culture medium (in the case of addition of glutathione, the concentration was 1 mM) containing cumulus-oocyte complexes (COCs), in the same manner as in Example 1 (IVF/glutathione in table). As the sperm, frozen sperms of C57BL/6J mice were used, and processed according to FIG. 1. Thawed sperms were pre-incubated in a TYH culture medium (±glutathione, ±methyl-β-cyclodextrin) at 37° C. for 30 minutes, and sperms showing motility were collected and used for fertilization. The experiment was conducted five times.

Molecule	thinning and swelling of zona pellucida [1]	number of 2-cell stage embryo(%) ([2]; sperm pre-incubation MBCD + (0.75 mM), glutathione −, IVF glutathione −)	number of 2-cell stage embryo ([2]; sperm pre-incubation MBCD + (0.75 mM), glutathione −, IVF glutathione −, 323 oocytes)	effect of sperm pre-incubation on fertilization rate ([2]; sperms pre-incubated with 1 mM glutathione or 0.75 mM MBCD, 37° C., 30 minutes)
O=C1O[C@H]([C@@H](O)CO)C(O)=C1O [ascorbic acid]	thinning or swelling of zona pellucida did not occur			
methyl-β-cyclodextrin [MBCD]		65	210	fertilization rate was improved
O[C@@H](CS)[C@@H](O)CS [DTT]	thinning and swelling of zona pellucida by treatment with DTT were confirmed			
